Results on 33 molecules are retold here after patent US5914325A, “Steroids with radical-attracting aromatic substituents, process for the production thereof and pharmaceutical compounds containing the said substances” (Jenapharm GmbH, priority 1993, dated 1999).

For one test, the system named is lipid peroxidation. The experiment in a line: Inhibition of lipid peroxidation in vitro, thiobarbituric acid test (synaptosomal membrane fraction, Fenton's reagent). The following applies: read-out: Lipid peroxidation inhibition [IC50], iron(II) chloride/hydrogen peroxide, 30 min at 37° C.
The next test has as its system LDL oxidation. The experiment in a line: Inhibition of LDL oxidation in vitro, method of Esterbauer et al (1988), CuSO4, 234 nm. Type of test: biochemical. Conditions: 1 μM, LDL isolated from human whole blood, room temperature, at least 8 h. On the procedure:
The measurement of in vitro inhibition of LDL oxidation was performed in accordance with Esterbauer et al (1988): Effect of peroxidative conditions on human plasma low density lipoproteins. In: Eicosanoids, lipid peroxidation and cancer (ed. Nigam et al), pages 203-214, Springer-Verlag,Berlin, Heidelberg, New York.
The values listed in Table 2 for inhibition of LDL oxidation represent examples for cardiovascular activities.
Testing of the substances for inhibitory action with regard to LDL oxidation, by the method of Esterbauer et al (1988), was carried out as follows:
The reaction mixture is incubated at room temperature over a period of at least 8 h and followed spectral photometrically (the absorption maximum of the oxidized LDL is at 234 nm). In accordance with the extinction changes, recorded at the measurement wavelength of 234 nm, in the presence or absence of test substances or in comparison of the native and the oxidized LDL, definitive statements on the influence on the oxidized LDL by the action of the test substance.
Dosage-action analysis of the test substances.

`COc1ccc2c(c1)CC[C@@H]1[C@@H]2CC[C@@]2(C)[C@H]1CC[C@@]2(O)Cc1cc(C)c(O)c(C)c1`: the IC50 in the test with lipid peroxidation came out at 2.34 µM.

On to `Cc1cc(C2=C[C@@H]3[C@H](CC[C@]4(C)[C@@H](O)CC[C@@H]34)c3ccc(O)cc32)cc(C)c1O` [6-2',6'-Dimethyl-4'-hydroxyphenylestra-1,3,5(10),6-tetraene-3,17β-diol], for which, in the test with LDL oxidation, the “LDL oxidation inhibition (prolongation of lag phase in min)” value (from here on “LDL oxidation inhibition”) turned out to be 180 min. The IC50 in the test on lipid peroxidation is 0.95 µM.

Take `CN(C)c1ccc(C2=C[C@@H]3[C@H](CC[C@]4(C)[C@@H](O)CC[C@@H]34)c3ccc(O)cc32)cc1` [6-4'-N,N-Dimethylaminophenylestra-1,3,5(10),6-tetraene-3,17β-diol]: the IC50 in the test with lipid peroxidation worked out at 2.75 µM.

As to `C[C@]12CC[C@H]3[C@@H](C[C@@H](c4ccc(O)cc4)C4=CC(=O)CC[C@@]43C)[C@@H]1CC[C@@H]2O` [6β-4'-Hydroxyphenyl-17β-hydroxyandrost-4-ene-3-one], in the test with lipid peroxidation, the IC50 amounted to 60 µM.

For `CN(C)c1ccc(C2=CC[C@H]3[C@@H]4CCc5cc(O)ccc5[C@H]4CC[C@]23C)cc1` [17-4'-N,N-Dimethylaminophenylestra-1,3,5(10),16-tetraene-3-ol], in the test with lipid peroxidation, the IC50 is 4.5 µM.

As to `COc1ccc2c(c1)CCC1C2CCC2(C)C1CCC2(O)C[Se]c1c(C(C)(C)C)cc(O)cc1C(C)(C)C` (stereo not drawn) [17α2',6'-Di-tert.-butyl-4'-hydroxyphenylselenomethyl-3-methoxyestra-1,3,5(10)-triene-17-ol], in the test with lipid peroxidation, the IC50 was 4.97 µM.

With `COc1ccc2c(c1)CCC1C2CCC2(C)C1CCC2(O)Cc1c(C(C)(C)C)cc(O)cc1C(C)(C)C` (stereo not drawn) [17α-2',6'-Di-tert.-butyl-4'-hydroxyphenylmethyl-3-methoxyestra-1,3,5(10)-triene-17-ol], the IC50 with lipid peroxidation stood at 12.6 µM.

On to `Cc1cc(O)cc(C)c1CC1(O)CCC2C3CCC4=CC(=O)CCC4C3CCC21C` (stereo not drawn) [17α-2',6'-Dimethyl-4'-hydroxyphenylmethyl-17-hydroxyestr-4-ene-3-one], for which the IC50 in the test on lipid peroxidation was 1.92 µM.

Turning to `COc1ccc2c(c1)CCC1C2CCC2(C)C1CCC2(O)C[Se]c1c(C)cc(O)cc1C` (stereo not drawn) [17α-2',6'-Dimethyl-4'-hydroxyphenylselenomethyl-3-methoxyestra-1,3,5(10)-triene-17-ol], in the test with lipid peroxidation, the IC50 is 1.97 µM.

Turning to `C[C@]12CC[C@H]3[C@@H](CCC4=CC(=O)CC[C@@H]43)[C@@H]1CC[C@@]2(O)COc1ccc(O)cc1` [17α-4'-Hydroxyphenoxymethyl-17-hydroxyestr-4-ene-3-one], in the test on lipid peroxidation, the IC50 worked out at 10.1 µM.

Turning to `COC1(OC)CCC2=C(CC[C@@H]3[C@@H]2CC[C@@]2(C)[C@H]3CC[C@@]2(O)CSc2ccc(O)cc2)C1` [17α-4'-Hydroxyphenylmercaptomethyl-3,3-dimethoxyestr-5(10)-ene-17-ol], the IC50 in the test with lipid peroxidation worked out at 1.46 µM.

Take `COc1ccc2c(c1)CC[C@@H]1[C@@H]2CC[C@@]2(C)[C@H]1CC[C@@]2(O)CSc1ccc(O)cc1` [17α-4'-Hydroxyphenylmercaptomethyl-3-methoxyestra-1,3,5(10)-triene-17-ol]: the IC50 with lipid peroxidation is 4.32 µM.

Turning to `CC1CC(=O)CC2CCC3C(CCC4(C)C3CCC4(O)CSc3ccc(O)cc3)C12C` (stereo not drawn) [17α-4'-Hydroxyphenylmercaptomethyl-17-hydroxy-1α-methyl-5α-androstan-3-one], in the test on lipid peroxidation, the IC50 is 3.82 µM.

Turning to `C[C@]12CCC(=O)C[C@@H]1CC[C@@H]1[C@@H]2CC[C@@]2(C)[C@H]1CC[C@@]2(O)CSc1ccc(O)cc1` [17α-4'-Hydroxyphenylmercaptomethyl-17-hydroxy-5α-androstan-3-one], the IC50 in the test on lipid peroxidation stood at 4.75 µM.

Take `C[C@]12CCC(=O)C=C1CC[C@@H]1[C@@H]2CC[C@@]2(C)[C@H]1CC[C@@]2(O)CSc1ccc(O)cc1` [17α-4'-Hydroxyphenylmercaptomethyl-17-hydroxyandrost-4-ene-3-one]: the IC50 with lipid peroxidation came to 10.9 µM.

On to `C[C@]12CC[C@H]3[C@@H](CCC4=CC(=O)CC[C@@H]43)[C@@H]1CC[C@@]2(O)CSc1ccc(O)cc1` [17α-4'-Hydroxyphenylmercaptomethyl-17-hydroxyestr-4-ene-3-one], for which the IC50 in the test with lipid peroxidation was 8.6 µM.

Turning to `C[C@]12CC=C3c4ccc(O)cc4CC[C@H]3[C@@H]1CC[C@@]2(O)CSc1ccc(O)cc1` [17α-4'-Hydroxyphenylmercaptomethylestra-1,3,5(10),9(11)-tetraene-3,17-diol], in the test with LDL oxidation, the “LDL oxidation inhibition” value was 270 min. The IC50 with lipid peroxidation worked out at 0.44 µM.

Take `C[C@]12CC[C@@H]3c4ccc(O)cc4CC[C@H]3[C@@H]1CC[C@@]2(O)CSc1ccc(O)cc1` [17α-4'-Hydroxyphenylmercaptomethylestra-1,3,5(10)-triene-3,17-diol]: the “LDL oxidation inhibition” value in the test with LDL oxidation is 120 min. Moreover, the IC50 in the test with lipid peroxidation was 2.2 µM.

Turning to `COc1ccc2c(c1)CC[C@@H]1[C@@H]2CC[C@@]2(C)[C@H]1CC[C@@]2(O)Cc1ccc(O)cc1` [17α-4'-Hydroxyphenylmethyl-3-methoxyestra-1,3,5(10)-triene-17-ol], the IC50 with lipid peroxidation was determined as 2.64 µM.

`C[C@]12CC[C@H]3[C@@H](CCC4=CC(=O)CC[C@@H]43)[C@@H]1CC[C@@]2(O)Cc1ccc(O)cc1` [17α-4'-Hydroxyphenylmethyl-17-hydroxyestr-4-ene-3-one]: the IC50 in the test with lipid peroxidation stood at 50 µM.

Regarding `C[C@]12CC=C3c4ccc(O)cc4CC[C@H]3[C@@H]1CC[C@@]2(O)Cc1ccc(O)cc1` [17α-4'-Hydroxyphenylmethylestra-1,3,5(10),9(11)-tetraene-3,17-diol], in the test on LDL oxidation, the “LDL oxidation inhibition” value was found to be 230 min. Besides, in the test with lipid peroxidation, the IC50 came out at 0.32 µM.

With `C[C@]12CC[C@@H]3c4ccc(O)cc4CC[C@H]3[C@@H]1CC[C@@]2(O)Cc1ccc(O)cc1` [17α-4'-Hydroxyphenylmethylestra-1,3,5(10)-triene-3,17-diol], the “LDL oxidation inhibition” value with LDL oxidation stood at 125 min. Moreover, the IC50 with lipid peroxidation worked out at 4.03 µM.

As to `CN(C)c1ccc([C@]2(O)CC[C@H]3[C@@H]4CCc5cc(O)ccc5[C@H]4CC[C@@]32C)cc1` [17α-4'-N,N-Dimethylaminophenylestra-1,3,5(10)-triene-3,17-diol], the “LDL oxidation inhibition” value with LDL oxidation was 170 min. The IC50 in the test on lipid peroxidation is 0.95 µM.

For `COc1ccc2c(c1)CC[C@@H]1[C@@H]2CC[C@@]2(C)[C@H]1CC[C@@]2(O)Cc1ccc(N(C)C)cc1` [17α-4'-N,N-Dimethylaminophenylmethyl-3-methoxyestra-1,3,5(10)-triene-17-ol], in the test on LDL oxidation, the “LDL oxidation inhibition” value was 195 min. Further, the IC50 in the test on lipid peroxidation worked out at 1.64 µM.

In the case of `CN(C)c1ccc(C[C@]2(O)CC[C@H]3[C@@H]4CCC5=CC(=O)CC[C@@H]5[C@H]4CC[C@@]32C)cc1` [17α-4'-N,N-Dimethylaminophenylmethyl-17-hydroxyestr-4-ene-3-one], the IC50 in the test on lipid peroxidation was greater than 10 µM.

Regarding `CN(C)c1ccc(C[C@]2(O)CC[C@H]3[C@@H]4CCc5cc(O)ccc5C4=CC[C@@]32C)cc1` [17α-4'-N,N-Dimethylaminophenylmethylestra-1,3,5(10),9(11)-tetraene-3,17-diol], in the test on lipid peroxidation, the IC50 was found to be 2.1 µM.

As to `CN(C)c1ccc(C[C@]2(O)CC[C@H]3[C@@H]4CCc5cc(O)ccc5[C@H]4CC[C@@]32C)cc1` [17α-4'-N,N-Dimethylaminophenylmethylestra-1,3,5(10)-triene-3,17-diol], the IC50 in the test with lipid peroxidation amounted to 3.53 µM.

`COc1ccc2c(c1)CC[C@@H]1[C@@H]2CC[C@@]2(C)[C@H]1CC[C@@]2(O)C[Se]c1ccc(N(C)C)cc1` [17α-4'-N,N-Dimethylaminophenylselenomethyl-3-methoxyestra-1,3,5(10)-triene-17-ol]: in the test on lipid peroxidation, the IC50 is 1.33 µM.

As to `COC1(OC)CCC2=C(CC[C@@H]3[C@@H]2CC[C@@]2(C)[C@H]3CC[C@@]2(O)Cc2ccc(N(C)C)cc2)C1` [17α-4'-N,N-Dimethylphenylmethyl-3,3-dimethoxyestr-5(10)-ene-17-ol], the IC50 in the test on lipid peroxidation was 5.5 µM.

For the molecule `C[C@]12CC[C@@H]3c4ccc(O)cc4CC[C@H]3[C@@H]1CC[C@@H]2O` [17β-Estradiol, reference compound], the “LDL oxidation inhibition” value in the test with LDL oxidation worked out at 40 min. Moreover, the IC50 in the test with lipid peroxidation was 12.4 µM.

Take `C[C@]12CC[C@@H]3c4ccc(O)cc4CC[C@H]3[C@@H]1C[C@@H](O)[C@@H]2O` [Estriol, reference compound]: the “LDL oxidation inhibition” value with LDL oxidation is 20 min. Further, the IC50 in the test on lipid peroxidation was 22.5 µM.

With `Cc1c(C)c2c(c(C)c1O)CCC(C)(CN1CCN(c3cc(N4CCCC4)nc(N4CCCC4)n3)CC1)O2` (stereo not drawn) [Example U-78517F, reference compound], the “LDL oxidation inhibition” value in the test with LDL oxidation is listed as 20 min.

With Vitamin E [reference compound], the IC50 in the test on lipid peroxidation was found to be 132 µM.
